Measured values from the supplement of paper PMC10307832.

How the values were obtained:
Experiment in all cases: relative viability (nuclei count vs DMSO), 5 days (fraction); higher = more cells survive
TPCA-1 + Trametinib = compound: C1=CC(=CC=C1C2=CC(=C(S2)NC(=O)N)C(=O)N)F [TPCA-1] + CC(=O)Nc1cccc(-n2c(=O)n(C3CC3)c(=O)c3c(Nc4ccc(I)cc4F)n(C)c(=O)c(C)c32)c1 [Trametinib] (partner 0.02 µM)
Outline: (§1)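 Values are medians from duplicate plates. Each reflects relative viability, defined as the nuclei count of treated wells over that of vehicle wells. Lung cancer cell lines in 1536-well plates were pin-tool dosed one day after seeding with one drug alone or with a fixed anchor-drug dose plus five library-drug doses (not always all listed) in √10 steps, then fixed, stained and imaged at 4× after 5 days.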

TPCA-1 + Linsitinib = compound: C1=CC(=CC=C1C2=CC(=C(S2)NC(=O)N)C(=O)N)F [TPCA-1] + C[C@]1(O)C[C@@H](c2nc(-c3ccc4ccc(-c5ccccc5)nc4c3)c3c(N)nccn32)C1 [Linsitinib] (partner 1 µM)
Outline: as §1

TPCA-1 + Alpelisib = compound: C1=CC(=CC=C1C2=CC(=C(S2)NC(=O)N)C(=O)N)F [TPCA-1] + Cc1nc(NC(=O)N2CCC[C@H]2C(N)=O)sc1-c1ccnc(C(C)(C)C(F)(F)F)c1 [Alpelisib] (partner 2 µM)
Outline: as §1

[1] = compound: C[C@]12O[C@H](C[C@]1(O)CO)n1c3ccccc3c3c4c(c5c6ccccc6n2c5c31)CNC4=O [Lestaurtinib] + Cc1cc(Nc2cc(N3CCN(C)CC3)nc(Sc3ccc(NC(=O)C4CC4)cc3)n2)n[nH]1 [Tozasertib] (partner 0.1 µM)
Outline: as §1

UMC-11
relative viability (TPCA-1 + Trametinib; first compound 0.04 µM): 0.648 | relative viability (TPCA-1 + Trametinib; first compound 0.1265 µM): 0.612 | relative viability (TPCA-1 + Trametinib; first compound 0.4 µM): 0.804 | relative viability (TPCA-1 + Trametinib; first compound 1.265 µM): 0.831 | relative viability (TPCA-1 + Trametinib; first compound 4 µM): 0.152 | relative viability (TPCA-1 + Linsitinib; first compound 0.04 µM): 1.03 | relative viability (TPCA-1 + Linsitinib; first compound 0.1265 µM): 1 | relative viability (TPCA-1 + Linsitinib; first compound 0.4 µM): 1.04 | relative viability (TPCA-1 + Linsitinib; first compound 1.265 µM): 0.918 | relative viability (TPCA-1 + Linsitinib; first compound 4 µM): 0.615 | relative viability (TPCA-1 + Alpelisib; first compound 0.04 µM): 0.988 | relative viability (TPCA-1 + Alpelisib; first compound 0.1265 µM): 0.946 | relative viability (TPCA-1 + Alpelisib; first compound 0.4 µM): 1.05 | relative viability (TPCA-1 + Alpelisib; first compound 1.265 µM): 0.96 | relative viability (TPCA-1 + Alpelisib; first compound 4 µM): 0.731 | relative viability ([1]; first compound 0.005 µM): 0.21 | relative viability ([1]; first compound 0.01581 µM): 0.206 | relative viability ([1]; first compound 0.05 µM): 0.217 | relative viability ([1]; first compound 0.1581 µM): 0.18 | relative viability ([1]; first compound 0.5 µM): 0.179
